This is an account of results in PMC11130353, “Using host-mimicking conditions and a murine cutaneous abscess model to identify synergistic antibiotic combinations effective against Pseudomonas aeruginosa” (Frontiers in Cellular and Infection Microbiology, 2024).

Molecules are shown by their SMILES. Converted amounts (≈) assume the structure as drawn. Like-named read-outs stand apart in the source and are kept apart here. Peptide text beside a SMILES is read from it.

Data set [1] concerns P. aeruginosa LESB58. Briefly: microbe, parasite or virus in culture. Format: cell-based, Pseudomonas aeruginosa. The following applies: for MIC in MHB / MIC in TCM: 20-24 h; for MIC: Pseudomonas aeruginosa; for MIC in TCM: TCM (DMEM + 1% glucose + 5% FBS). Here is the method:
(§1) For susceptibility testing under standard conditions, bacteria were cultured in Muller Hinton Broth MHB (Fort Richards Laboratories). […] Further susceptibility testing was also conducted in MHB supplemented with FBS (5% v/v) and DMEM supplemented with glucose (1% w/v) and MHB (10% v/v).
The minimum inhibitory concentration (MIC) of each antibiotic was determined using the broth microdilution method in 96-well plates. […] Briefly, antibiotics were two-fold serially diluted in MHB or TCM prior to adding 1 × 10^6 CFU mL^-1 bacteria. […] The MIC was recorded as the lowest antibiotic concentration with no visible growth and the median value of at least three biological replicates reported.

The test system of data set [2] is P. aeruginosa LESB58. Kind of data set: Minimum bactericidal concentration. Format: cell-based. The following applies: Pseudomonas aeruginosa. The protocol: (§2) For susceptibility testing under standard conditions, bacteria were cultured in Muller Hinton Broth MHB (Fort Richards Laboratories). Host mimicking conditions in vitro were simulated using tissue culture medium (TCM) consisting of Dulbecco’s modified Eagle medium (DMEM; Gibco #11965) supplemented with FBS (Moregate Biotech) (5% v/v) and glucose (1% w/v). Further susceptibility testing was also conducted in MHB supplemented with FBS (5% v/v) and DMEM supplemented with glucose (1% w/v) and MHB (10% v/v).
The minimum bactericidal concentration (MBC) was determined by spotting 5 μL from wells of the MIC plate at or above the MIC onto antibiotic free dYT agar. Plates were incubated at 37°C for another 22-24 hours. The MBC was recorded as the lowest antibiotic concentration with no visible growth on agar plates and the median value reported.

The test system of the next data set is P. aeruginosa LESB58-lux. Kind of data set: In vitro synergy, checkerboard assay (luminescence readout). Format: cell-based, Pseudomonas aeruginosa. Particulars: TCM, LESB58-lux; for FICI, drug combined with CAZ / FICI, drug combined with CZA: FICI <= 0.5 indicates synergy. The protocol: as §2
(§3) The P. aeruginosa LESB58.lux strain was used for in vitro synergy experiments with azithromycin in MHB and all antibiotic combinations in TCM to determine bacterial growth (as visual inspection and absorbance measurements were unreliable). Synergy was determined using the checkerboard method ([Berenbaum, 1978]; [Pletzer and Hancock, 2018]) in at least triplicate. Each antibiotic was two-fold serially diluted in sterile water before transferring to a 96-well plate containing 1 × 10^6 CFU mL^-1 bacteria in MHB or TCM. Plates were incubated at 37°C for 22-24 hours. The MIC alone or in combination was recorded as the lowest antibiotic concentration with no visible growth. For experiments using the LESB58.lux strain no visible growth was defined as an at least 95% reduction compared to the no antibiotic growth control in luminescence detected using a ClarioStar plate reader. The fractional inhibitory concentration index (FICI) was calculated as [(MICA in combination)/MICA] + [(MICB in combination)/MICB]. FICI values of 0.5 or below indicated synergy, while values above 0.5 up to and including 1 were taken to indicate additivity. FICI values above 1 indicate indifference or antagonism ([Odds, 2003]).

The procedure of data set [3]:
Mice used in this study were female Swiss Webster aged approximately 6-7 weeks and sourced from the University of Otago Biomedical Research Facility. […] Briefly, the fur on the back of each mouse was removed by shaving and chemical depilation. Antibiotics were tested for skin toxicity by injecting 50 μL of antibiotic suspension subcutaneously into naïve mice, and subsequent inspection of the skin for inflammation on the next day. P. aeruginosa LESB58 was grown to mid-log phase in dYT broth, washed twice in sterile PBS (Gibco, pH 7.4), and resuspended in PBS to ~1 x 10^8 CFU per 50 μL inoculum. The bacterial suspension (50 μL) was injected subcutaneously into the right side of the dorsum, followed one hour later by 50 μL of antibiotic treatment injected directly into the infected area. […] Combination treatments were administered as a single 50 μL injection containing both antibiotics. The concentration of each antibiotic in the combination was the same as when it was used alone. Progression of the infection was monitored daily, and abscess dimensions were measured on day three using a calliper. On day three, abscess tissue and pus were excised, homogenized in sterile PBS using SPEX SamplePrep 1600 MiniG for five minutes and bacterial CFU counts determined by serial dilution.

Another data set deals with P. aeruginosa PAO1. Kind of data set: Minimum inhibitory concentration, broth microdilution. The data set is classed as cell-based, Pseudomonas aeruginosa. The protocol:
as §1
The minimum inhibitory concentration (MIC) of each antibiotic was determined using the broth microdilution method in 96-well plates. […] Briefly, antibiotics were two-fold serially diluted in MHB or TCM prior to adding 1 × 10^6 CFU mL^-1 bacteria. Plates were incubated at 37°C for 22-24 hours. The MIC was recorded as the lowest antibiotic concentration with no visible growth and the median value of at least three biological replicates reported.

Data set [4] relates to P. aeruginosa LESB58. Kind of data set: In vitro synergy, checkerboard assay. Particulars: MHB. Format: cell-based, Pseudomonas aeruginosa. Here is the method: as §2, §3
Data set [5] relates to P. aeruginosa LESB58. Briefly: Murine high density subcutaneous skin abscess model. The data set is classed as in vivo, Pseudomonas aeruginosa. The following applies: Colistin. The protocol: Mice used in this study were female Swiss Webster aged approximately 6-7 weeks and sourced from the University of Otago Biomedical Research Facility. […] The subcutaneous abscess infection model was performed as previously described ([Pletzer et al., 2017]) with a higher inoculum. Briefly, the fur on the back of each mouse was removed by shaving and chemical depilation. Antibiotics were tested for skin toxicity by injecting 50 μL of antibiotic suspension subcutaneously into naïve mice, and subsequent inspection of the skin for inflammation on the next day. P. aeruginosa LESB58 was grown to mid-log phase in dYT broth, washed twice in sterile PBS (Gibco, pH 7.4), and resuspended in PBS to ~1 x 10^8 CFU per 50 μL inoculum. The bacterial suspension (50 μL) was injected subcutaneously into the right side of the dorsum, followed one hour later by 50 μL of antibiotic treatment injected directly into the infected area. […] Combination treatments were administered as a single 50 μL injection containing both antibiotics. The concentration of each antibiotic in the combination was the same as when it was used alone. Progression of the infection was monitored daily, and abscess dimensions were measured on day three using a calliper. On day three, abscess tissue and pus were excised, homogenized in sterile PBS using SPEX SamplePrep 1600 MiniG for five minutes and bacterial CFU counts determined by serial dilution. In this model, synergy was defined as being a significant difference between the combination treated group and the amalgamated group of single drug treated animals ([Fantin and Carbon, 1992]; [Pletzer et al., 2018]).
Statistical analysis was performed using GraphPad Prism 9.5.1. Bacterial CFU and abscess size data from in vivo experiments was analysed by Kruskal-Wallace test with Dunn’s correction for multiple comparisons. The data was considered significant when p-values were below 0.05 or 0.01 as indicated.

Setting [6] is: 50 μL injected subcutaneously, skin inspected next day.
Where [7] appears, read: tigecycline and tobramycin groups, compared to the vehicle control, day 3.

Regarding `NC(=O)[C@@H]1CC[C@@H]2CN1C(=O)N2OS(=O)(=O)O` [AVI, avibactam], in the data set with P. aeruginosa LESB58 [1] (listed as Avibactam), the “MIC in MHB” value is “no antimicrobial activity” and the “MIC in TCM” value is “significant antimicrobial activity”. Also, in the data set with P. aeruginosa LESB58 [1] (listed as avibactam), the “MIC in MHB” value was “not observed” and the “MIC in TCM” value was “had anti-pseudomonal activity”. Besides, the MIC in the data set on P. aeruginosa LESB58 [1] (LESB58, read-out: MIC in MHB, MHB, 20-24 h) is over 125 µg/mL. For the same molecule, the MIC with P. aeruginosa LESB58 [1] (LESB58, read-out: MIC in TCM, TCM (DMEM + 1% glucose + 5% FBS), 20-24 h) came to 31.2 µg/mL. This molecule also gave an MBC in the data set on P. aeruginosa LESB58 [2] (LESB58, MHB) of over 125 µg/mL. For the same molecule, the MBC with P. aeruginosa LESB58 [2] (LESB58, TCM (DMEM + 1% glucose + 5% FBS)) came to 62.5 µg/mL. Also, in the data set with P. aeruginosa LESB58-lux, the “Fold decrease in CAZ MIC, drug combined with CAZ” value (from here on “Fold decrease in CAZ MIC”) is reported as 8; the “Fold decrease in other MIC, drug combined with CAZ” value is recorded as 4; the “FICI, drug combined with CAZ” value was 0.38. The “Highest tolerated dose tested” value in data set [3] (female, Swiss Webster, mouse, in vivo, sc, 1 day) was found to be 12 mg/mL.
As to `CC[C@H](C)CCCCC(=O)N[C@@H](CCN)C(=O)N[C@H](C(=O)N[C@@H](CCN)C(=O)N[C@H]1CCNC(=O)[C@H]([C@@H](C)O)NC(=O)[C@H](CCN)NC(=O)[C@H](CCN)NC(=O)[C@H](CC(C)C)NC(=O)[C@@H](CC(C)C)NC(=O)[C@H](CCN)NC1=O)[C@@H](C)O` [CST, colistin] (HELM PEPTIDE1{[CC[C@H](C)CCCCC(=O)[*:2]].[Dab].T.[Dab].[Dab].[Dab].[dL].L.[Dab].[Dab].T}$PEPTIDE1,PEPTIDE1,5:R3-11:R2$$$V2.0), in the data set on P. aeruginosa LESB58 [1], the “MIC in MHB” value worked out at 3.13 µg/mL (≈ 2.68 µM) and the “MIC in TCM” value came to 12.5 µg/mL. In addition, the “MIC in MHB” value with P. aeruginosa PAO1 (MHB) worked out at 2.5 µg/mL (≈ 2.14 µM). Besides, in the data set on P. aeruginosa PAO1 (MIC in TCM vs MIC in MHB), the “Fold change TCM vs MHB (MIC)” value was found to be 10. Moreover, the “MIC in TCM” value against P. aeruginosa PAO1 (TCM) was 25 µg/mL (≈ 21.4 µM). Further, in the data set on P. aeruginosa LESB58 [4], the “Fold decrease in CAZ MIC” value was determined as 4; the “Fold decrease in CZA MIC, drug combined with CZA” value is given as 4; the “Fold decrease in other MIC, drug combined with CAZ” value came to 8; the “Fold decrease in other MIC, drug combined with CZA” value turned out to be 8. Besides, the “FICI, drug combined with CAZ” value in the data set with P. aeruginosa LESB58 [4] (FICI <= 0.5 indicates synergy) amounted to 0.38. Further, in the data set on P. aeruginosa LESB58-lux, the “Fold decrease in CAZ MIC” value is 8; the “Fold decrease in CZA MIC, drug combined with CZA” value was 4; the “Fold decrease in other MIC, drug combined with CAZ” value was 4; the “Fold decrease in other MIC, drug combined with CZA” value amounted to 4. In addition, in the data set on P. aeruginosa LESB58-lux, the “FICI, drug combined with CAZ” value is recorded as 0.38 and the “FICI, drug combined with CZA” value turned out to be 0.5. In the data set on P. aeruginosa LESB58-lux (listed as colistin), the “FICI, drug combined with CAZ” value is on record as “synergised” and the “FICI, drug combined with CZA” value is recorded as “synergised”. Also, in data set [3] (setting [6]), the “Highest tolerated dose tested” value stood at 2 mg/mL and the “Toxic (visible skin irritation, inflammation, blood vessels, swelling)” value amounted to 5 mg/mL. Also, the “Area of dermoncecrosis, Mean” value with P. aeruginosa LESB58 [5] (tigecycline and tobramycin groups (shared vehicle, CAZ and CZA mice), female Swiss Webster mice, 50 μL s.c. 1 h after infection, day 3, CAZ or CZA 50, CST 1.25, TGC 2.5, TOB 2 mg/mL, vehicle 0.9% saline) is 38.6 mm^2. Besides, in the data set on P. aeruginosa LESB58 [5] (setting [7]), the “Area of dermoncecrosis, % reduction” value is on record as 58.9% and the “CFU per abscess, Fold change” value is -107.4. The “Area of dermoncecrosis, % reduction” value in the data set with P. aeruginosa LESB58 [5] (tigecycline and tobramycin groups, compared to the vehicle control, day 3, listed as colistin) worked out at 59%. In addition, the “CFU per abscess, Geometric mean” value in the data set on P. aeruginosa LESB58 [5] (tigecycline and tobramycin groups, day 3) was 2.3 × 10^6 CFU per abscess. Besides, the “Fold reduction of bacterial load (CFU) relative to vehicle” value in the data set on P. aeruginosa LESB58 [5] (tigecycline, tobramycin experiments) was about 107.
